US12338243B2, “P2X7 modulators” (JANSSEN PHARMACEUTICA NV, priority 2014, dated 2025)

Assays:
P2X7 = biological target: T1, P2X7 (Homo sapiens, UniProt Q99572); assay: Ca2+ flux (FLIPR) in 1321N1 cells expressing recombinant human P2X7 channel; format: cell-based; parameters: expressed in transfected cells; host or cells: 1321N1 cells; conditions: 250 μM BzATP
T1 sequence (Q99572 1-595): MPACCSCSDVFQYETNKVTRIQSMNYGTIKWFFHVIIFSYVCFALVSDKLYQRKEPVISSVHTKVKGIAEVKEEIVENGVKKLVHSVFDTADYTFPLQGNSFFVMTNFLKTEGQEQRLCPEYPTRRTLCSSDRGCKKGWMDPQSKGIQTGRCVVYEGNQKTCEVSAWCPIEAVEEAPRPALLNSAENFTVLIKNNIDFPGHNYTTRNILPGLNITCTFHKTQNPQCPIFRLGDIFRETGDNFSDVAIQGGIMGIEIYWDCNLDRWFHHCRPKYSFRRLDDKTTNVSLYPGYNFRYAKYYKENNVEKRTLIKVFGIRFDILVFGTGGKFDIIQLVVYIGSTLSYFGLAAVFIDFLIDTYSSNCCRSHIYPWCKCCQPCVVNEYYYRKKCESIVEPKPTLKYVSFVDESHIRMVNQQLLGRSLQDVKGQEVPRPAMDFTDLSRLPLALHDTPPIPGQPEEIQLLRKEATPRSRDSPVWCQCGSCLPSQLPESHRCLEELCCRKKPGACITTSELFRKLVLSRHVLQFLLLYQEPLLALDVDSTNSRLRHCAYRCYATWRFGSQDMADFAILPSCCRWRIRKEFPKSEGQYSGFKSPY
Description: P2X7 Antagonism in Recombinant Human P2X7 Cells or Recombinant Rat P2X7 Cells: (a) Ca^2+ Flux and (b) Radioligand Binding
(a) Ca^2+ flux: 1321N1 cells expressing the recombinant human or rat P2X7 channel was cultured in HyQ DME/(HyClone/Dulbecco's Modified Eagle Medium) high glucose supplemented with 10% Fetal Bovine Serum (FBS) and appropriate selection marker. Cells were seeded at a density of 25000 cells/well (96-well clear bottom black walled plates) in 100 μl volume/well. On the day of the experiment, cell plates were washed with assay buffer, containing (in mM): 130 NaCl, 2 KCl, 1 CaCl2), 1 MgCl2, 10 HEPES, 5 glucose; pH 7.40 and 300 mOs. After the wash, cells were loaded with the Calcium-4 dye (Molecular Device) and incubated in the dark for 60 minutes. Test compounds were prepared at 250× the test concentration in neat DMSO. Intermediate 96-well compound plates were prepared by transferring 1.2 μL of the compound into 300 μL of assay buffer. A further 3× dilution occurred when transferring 50 μL/well of the compound plate to 100 μL/well in the cell plate. Cells were incubated with test compounds and dye for 30 minutes. […] The fluorescence change was measured 180 seconds after adding the agonist.

rat P2X7 = biological target: T2, rat P2X7 (Rattus norvegicus, UniProt Q64663); assay: Ca2+ flux (FLIPR) in 1321N1 cells expressing recombinant rat P2X7 channel; conditions: FLIPR (rat) IC50 (μM), 250 μM BzATP
T2 sequence (Q64663 1-595): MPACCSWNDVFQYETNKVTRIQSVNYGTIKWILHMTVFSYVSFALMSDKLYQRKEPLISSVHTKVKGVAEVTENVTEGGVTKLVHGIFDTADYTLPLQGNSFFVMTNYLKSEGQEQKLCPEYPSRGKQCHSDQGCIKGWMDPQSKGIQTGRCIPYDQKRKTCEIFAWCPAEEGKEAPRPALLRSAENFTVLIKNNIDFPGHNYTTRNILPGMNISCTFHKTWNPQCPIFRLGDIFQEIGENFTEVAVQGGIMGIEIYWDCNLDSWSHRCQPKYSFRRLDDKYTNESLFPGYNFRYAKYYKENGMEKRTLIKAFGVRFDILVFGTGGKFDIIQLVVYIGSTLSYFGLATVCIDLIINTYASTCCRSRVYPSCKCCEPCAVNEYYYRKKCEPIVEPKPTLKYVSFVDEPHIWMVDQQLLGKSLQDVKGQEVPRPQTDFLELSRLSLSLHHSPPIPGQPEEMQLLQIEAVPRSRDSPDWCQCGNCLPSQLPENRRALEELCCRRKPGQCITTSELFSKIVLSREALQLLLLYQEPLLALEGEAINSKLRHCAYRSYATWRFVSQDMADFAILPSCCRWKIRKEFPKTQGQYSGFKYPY

Structure (SMILES)	IC50 (P2X7) [µM]	IC50 (rat P2X7) [µM]
O=C(c1cccc(C(F)(F)F)c1Cl)N1CCn2c(-c3ccco3)nnc2[C@H]1c1ccccc1 [Example 83, (R)-(2-chloro-3-(trifluoromethyl)phenyl)(3-(furan-2-yl)-8-phenyl-5,6-dihydro-[1,2,4]triazolo[4,3-a]pyrazin-7(8H)-yl)methanone]	1.79	0.998
Cc1nnc2n1CCN(C(=O)c1cccc(Cl)c1Cl)[C@@H]2c1ccc(F)cc1 [Example 104, (R)-(2,3-dichlorophenyl)(8-(4-fluorophenyl)-3-methyl-5,6-dihydro-[1,2,4]triazolo[4,3-a]pyrazin-7(8H)-yl)methanone]	4.48	> 10
COc1ccc(-c2nnc3n2C[C@H](C)N(C(=O)c2cccc(C(F)(F)F)c2Cl)C3)nc1 [Example 71]	1.22	> 10
CC1CN(C(=O)c2cccc(Cl)c2Cl)Cc2nnc(-c3ccccn3)n21 (centres unmarked) [Example 34, (2,3-dichlorophenyl)(5-methyl-3-(pyridin-2-yl)-5,6-dihydro-[1,2,4]triazolo[4,3-a]pyrazin-7(8H)-yl)methanone]	12.9	> 10
O=C(c1ccc(F)cc1Cl)N1CCn2c(nnc2C(F)(F)F)[C@H]1c1ccccc1 [Example 118, (R)-(2-chloro-4-fluorophenyl)(8-phenyl-3-(trifluoromethyl)-5,6-dihydro-[1,2,4]triazolo[4,3-a]pyrazin-7(8H)-yl)methanone]	0.921	19.6
C[C@H]1Cn2c(nnc2-c2ccc(C(F)(F)F)cc2)CN1C(=O)c1cccc(C(F)(F)F)c1Cl [Example 27, (S)-(2-chloro-3-(trifluoromethyl)phenyl)(6-methyl-3-(4-(trifluoromethyl)phenyl)-5,6-dihydro-[1,2,4]triazolo[4,3-a]pyrazin-7(8H)-yl)methanone]	1.66	2.96
C[C@H]1Cn2c(nnc2-c2ccc(F)c(F)c2)CN1C(=O)c1cccc(Cl)c1Cl [Example 47, (S)-(2,3-dichlorophenyl)(3-(3,4-difluorophenyl)-6-methyl-5,6-dihydro-[1,2,4]triazolo[4,3-a]pyrazin-7(8H)-yl)methanone]	10.4	1.61
C[C@H]1Cn2c(nnc2-c2ccc(F)c(F)c2)CN1C(=O)c1ccc(F)c(Cl)c1Cl [Example 49, (S)-(2,3-dichloro-4-fluorophenyl)(3-(3,4-difluorophenyl)-6-methyl-5,6-dihydro-[1,2,4]triazolo[4,3-a]pyrazin-7(8H)-yl)methanone]	4.11	2.73
O=C(c1cccc(C(F)(F)F)c1Cl)N1CCn2c(nnc2C(F)(F)F)[C@@H]1c1ccccc1 [Example 98, (S)-(2-chloro-3-(trifluoromethyl)phenyl)(8-phenyl-3-(trifluoromethyl)-5,6-dihydro-[1,2,4]triazolo[4,3-a]pyrazin-7(8H)-yl)methanone]	5.51	> 10
CC(C)c1nnc2n1CCN(C(=O)c1cccc(C(F)(F)F)c1Cl)[C@H]2c1ccccc1 [Example 89, (S)-(2-chloro-3-(trifluoromethyl)phenyl)(3-isopropyl-8-phenyl-5,6-dihydro-[1,2,4]triazolo[4,3-a]pyrazin-7(8H)-yl)methanone]	0.98	> 10
O=C(c1cccc(C(F)(F)F)c1Cl)N1CCn2c(C(F)F)nnc2[C@@H]1c1ccccc1 [Example 109, (S)-(2-chloro-3-(trifluoromethyl)phenyl)(3-(difluoromethyl)-8-phenyl-5,6-dihydro-[1,2,4]triazolo[4,3-a]pyrazin-7(8H)-yl)methanone]	> 10	> 10
O=C(c1cccc(C(F)(F)F)c1Cl)N1CCn2c(C3CC3)nnc2[C@H]1c1ccc(F)cc1 [Example 106, (R)-(2-chloro-3-(trifluoromethyl)phenyl)(3-cyclopropyl-8-(4-fluorophenyl)-5,6-dihydro-[1,2,4]triazolo[4,3-a]pyrazin-7(8H)-yl)methanone]	> 10	> 10
C[C@H]1Cn2c(nnc2-c2ccc(C(F)(F)F)cc2)CN1C(=O)c1cccc(Cl)c1Cl [Example 26, (S)-(2,3-dichlorophenyl)(6-methyl-3-(4-(trifluoromethyl)phenyl)-5,6-dihydro-[1,2,4]triazolo[4,3-a]pyrazin-7(8H)-yl)methanone]	4.13	3.95
CC(C)(C)c1nnc2n1CCN(C(=O)c1cccc(C(F)(F)F)c1Cl)[C@H]2c1ccccc1 [Example 82, (S)-(3-(tert-butyl)-8-phenyl-5,6-dihydro-[1,2,4]triazolo[4,3-a]pyrazin-7(8H)-yl)(2-chloro-3-(trifluoromethyl)phenyl)methanone]	0.959	1.85
O=C(c1cccc(C(F)(F)F)c1Cl)N1CCn2c(C3CC3)nnc2[C@H]1c1ccccc1 [Example 77, (R)-(2-chloro-3-(trifluoromethyl)phenyl)(3-cyclopropyl-8-phenyl-5,6-dihydro-[1,2,4]triazolo[4,3-a]pyrazin-7(8H)-yl)methanone]	0.589	1.11
CCc1nnc2n1CCN(C(=O)c1cccc(C(F)(F)F)c1Cl)[C@H]2c1ccccc1 [Example 87, (S)-(2-chloro-3-(trifluoromethyl)phenyl)(3-ethyl-8-phenyl-5,6-dihydro-[1,2,4]triazolo[4,3-a]pyrazin-7(8H)-yl)methanone]	3.81	9.93
C[C@H]1Cn2c(nnc2-c2cccc(F)c2)CN1C(=O)c1cccc(Cl)c1Cl [Example 41, (S)-(2,3-dichlorophenyl)(3-(3-fluorophenyl)-6-methyl-5,6-dihydro-[1,2,4]triazolo[4,3-a]pyrazin-7(8H)-yl)methanone]	> 10	10.7
C[C@H]1Cn2c(nnc2-c2cccc(F)c2F)CN1C(=O)c1ccc(F)c(Cl)c1Cl [Example 46, (S)-(2,3-dichloro-4-fluorophenyl)(3-(2,3-difluorophenyl)-6-methyl-5,6-dihydro-[1,2,4]triazolo[4,3-a]pyrazin-7(8H)-yl)methanone]	2.54	2.42
O=C(c1cccc(Cl)c1Cl)N1CCn2c(nnc2C(F)(F)F)[C@@H]1c1ccccc1 [Example 103, (S)-(2,3-dichlorophenyl)(8-phenyl-3-(trifluoromethyl)-5,6-dihydro-[1,2,4]triazolo[4,3-a]pyrazin-7(8H)-yl)methanone]	1.4	> 10
CC1c2nnc(C3CC3)n2CCN1C(=O)c1cccc(C(F)(F)F)c1Cl (centres unmarked) [Example 65, (2-chloro-3-(trifluoromethyl)phenyl)(3-cyclopropyl-8-methyl-5,6-dihydro-[1,2,4]triazolo[4,3-a]pyrazin-7(8H)-yl)methanone]	> 10	> 10
Cc1nnc2n1CCN(C(=O)c1cccc(C(F)(F)F)c1Cl)[C@H]2c1ccccn1 [Example 92, (S)-(2-chloro-3-(trifluoromethyl)phenyl)(3-methyl-8-(pyridin-2-yl)-5,6-dihydro-[1,2,4]triazolo[4,3-a]pyrazin-7(8H)-yl)methanone]	0.755	17.7
C[C@H]1Cn2c(nnc2-c2cccc(F)c2F)CN1C(=O)c1cccc(C(F)(F)F)c1Cl [Example 45, (S)-(2-chloro-3-(trifluoromethyl)phenyl)(3-(2,3-difluorophenyl)-6-methyl-5,6-dihydro-[1,2,4]triazolo[4,3-a]pyrazin-7(8H)-yl)methanone]	1.82	0.408
